# ChEMBL document CHEMBL1130432, “Neuritogenic effect of epolactaene derivatives on human neuroblastoma cells which lack high-affinity nerve growth factor receptors” (1997)
# Columns and labels:
# Assay type in all cases: functional, Homo sapiens
# SH-SY5Y [1] = assay: Ability to induce neurite outgrowth in SH-SY5Y cells measured as percentage of neurite bearing cells/total cells at 25.4 uM; Range is 5-20%
# SH-SY5Y [2] = assay: Ability to induce neurite outgrowth in SH-SY5Y cells measured as percentage of neurite bearing cells/total cells at 98.8 uM; Range is 5-20%
# SH-SY5Y [3] = assay: Ability to induce neurite outgrowth in SH-SY5Y cells measured as percentage of neurite bearing cells/total cells at 59.4 uM
# SH-SY5Y [4] = assay: Ability to induce neurite outgrowth in SH-SY5Y cells measured as percentage of neurite bearing cells/total cells at 29.5 uM; Range is 5-20%
# SH-SY5Y [5] = assay: Ability to induce neurite outgrowth in SH-SY5Y cells measured as percentage of neurite bearing cells/total cells at 17.8 uM; Range is 20-40%
# SH-SY5Y [6] = assay: Ability to induce neurite outgrowth in SH-SY5Y cells measured as percentage of neurite bearing cells/total cells at 118.8 uM; Range is 5-20%
smiles,measurement,setting,value
CCCCCCCCCCCCCCCCN1C(=O)C(C(C)=O)=C(C)C1(C)O (stereo unspecified),Neurite bearing cells/total cells,SH-SY5Y [1],20%
CCCCCCOC1(C)NC(=O)C(C(C)=O)=C1C (stereo unspecified),Neurite bearing cells/total cells,SH-SY5Y [2],20%
CCCCCCCCCCCCCCCCCCOC1(C)NC(=O)C(C(C)=O)=C1C (stereo unspecified),Neurite bearing cells/total cells,SH-SY5Y [3],>40%
CCCCCCCCCCCCN1C(=O)C(C(C)=O)=C(C)C1(C)O (stereo unspecified),Neurite bearing cells/total cells,SH-SY5Y [4],20%
CCCCCCCCN1C(=O)C(C(C)=O)=C(C)C1(C)O (stereo unspecified),Neurite bearing cells/total cells,SH-SY5Y [5],40%
CCCCCCCCCCCCCCCCCCN1C(=O)C(C(C)=O)=C(C)C1(C)O (stereo unspecified),Neurite bearing cells/total cells,SH-SY5Y [6],20%
